Source: ChEMBL document CHEMBL6134925, “Novel Pyrrolidinone Urea as FPR2 Agonists for Treating Atherosclerosis and Heart Failure” (ACS Med Chem Lett, 2025)

Molecular target: T1, N-formyl peptide receptor 2 (Homo sapiens, UniProt P25090)
T1 sequence (P25090 whole entry): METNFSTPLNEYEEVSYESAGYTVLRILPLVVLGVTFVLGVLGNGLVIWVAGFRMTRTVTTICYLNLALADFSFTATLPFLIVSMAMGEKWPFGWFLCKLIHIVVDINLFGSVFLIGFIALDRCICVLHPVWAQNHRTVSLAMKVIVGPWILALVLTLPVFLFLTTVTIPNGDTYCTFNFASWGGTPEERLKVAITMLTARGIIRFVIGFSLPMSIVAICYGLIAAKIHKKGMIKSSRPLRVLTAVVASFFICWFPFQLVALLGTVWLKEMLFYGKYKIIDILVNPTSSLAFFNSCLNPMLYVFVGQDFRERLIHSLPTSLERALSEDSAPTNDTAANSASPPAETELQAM
Assay: Agonist activity at human FPR2 receptor expressed in CHO cells assessed as forskolin/IBMX-induced intracellular cAMP level incubated for 30 mins by HTRF HiRange cAMP assay
Format: functional, cell-based

EC50 [nM]	Structure (SMILES)
0.21	CN(C)[C@@H]1CCN(c2ccc(N3CC[C@@H](NC(=O)Nc4ccc(C(F)(F)F)cc4)C3=O)c(F)c2F)C1
4.4	O=C(Nc1ccc(Cl)cc1F)NC1CCN(c2c(F)cc(N3CCCS3(=O)=O)cc2F)C1=O (stereo unspecified)
0.27	CN(CCO)[C@@H]1CCN(c2ccc(N3CCC(NC(=O)Nc4ccc(Cl)cc4)C3=O)c(F)c2F)C1 (stereo partly specified)
0.19	CN(C)[C@@H]1CCN(c2ccc(N3CC[C@@H](NC(=O)Nc4ccc(Cl)cc4)C3=O)c(F)c2F)C1
7.2	O=C(Nc1ccc(C(F)(F)F)cc1F)NC1CCN(c2c(F)cc(N3CCCS3(=O)=O)cc2F)C1=O (stereo unspecified)
5.6	CN[C@@H]1CCN(c2ccc(N3CCC(NC(=O)Nc4ccc(Cl)cc4)C3=O)c(F)c2F)C1 (stereo partly specified)
